Results from patent US20220257552A1, “METHODS OF PRESCREENING AND TREATING BREAST CANCERS WITH SELECTIVE ANDROGEN RECEPTOR MODULATORS” (priority 2021, published 2022).

How the values were obtained:
[1] = system: HCI-13 tumor fragments; assay: HCI-13 ex vivo sponge culture, real time PCR; format: cell-based; conditions: 3 days
Description: HCI-13 tumors grown in female mice were allowed to reach 500-1000 mm^3 before the animals were sacrificed and the tumors were excised to be used for sponge culture. Patient specimens frozen in liquid nitrogen in freezing medium were used for sponge culture. […] Tumors were sliced into small pieces (˜1 mm^3) and incubated on pre-soaked gelatin sponges (5 fragments/sponge) in 12 well plates containing 1.5 mL medium (MEM+10% FBS+2 mM L-glutamine+10 μg/mL insulin+10 μg/mL hydrocortisone+penicillin:streptomycin). The cultures were performed in triplicates for HCI-13 and singly for patient specimens. Pooled samples (n=5/sponge) from each sponge constituted one sample. Tissues were harvested after 3 days of treatment, RNA extracted, and expression of various genes measured. Although the same procedure was adopted for specimens obtained from breast cancer patients, the specimens were cultured singly (n=5/sponge=one sample) and not in triplicates as performed for HCI-13.

[2] = Phase 3 trials in non-small cell lung cancer (muscle wasting); format: in vivo, human; conditions: 3 mg daily
Excerpt: These include: 1. Protocol G100401, a Phase 1 single ascending dose study in 96 healthy, young, male volunteers; 2. Protocol G100402, a Phase 1 multiple ascending dose study in 50 healthy, young, male volunteers, and 23 elderly male volunteers with truncal obesity; 3. Protocol G100503, a Phase 1 single dose pharmacokinetic study to assess the effect of a dosage regimen that simulates a sustained release formulation to an immediate release formulation in 18 healthy, young male volunteers and 18 postmenopausal women; 4. Protocol G100506, a Phase 1 single dose pharmacokinetic study to assess the relative bioavailability of a 3 mg hard shell capsule formulation to be used during continued clinical development and to assess the effect of food on the pharmacokinetics of the 3 mg softgel formulation in 27 healthy, young, male volunteers; 5. Protocol 006, a Phase 1 single dose and multiple dose pharmacokinetic study in 24 postmenopausal, Japanese women; 6. Protocol G200501, a Phase 2 study in 60 postmenopausal women and 60 elderly men to assess lean body mass and physical function; 7. Protocol 003, a Phase 1b study in 44 postmenopausal women; 8.

[3] = system: HCI-9 PDX; assay: HCI-9 patient-derived xenograft in NSG mice; format: in vivo; conditions: Formula IX 10 mpk, enzalutamide 30 mpk p.o.
Description: (§1) All animal protocols were approved by The University of Tennessee Health Science Center (UTHSC) Institutional Animal Care and Use Research Committee. Xenograft experiments were performed as previously published (Narayanan et al. (2014) PLoS One 9, e103202). Briefly, 3 million MCF-7 cells were suspended in 0.05 ml MEM+10% FBS and 0.05 ml Matrigel/nude mouse and were injected subcutaneously. Once the tumor size reached 100-200 mm^3, the animals were randomized and treated orally with the indicated drugs formulated in DMSO:PEG-300 (15:85). HCI-7, HCI-9, and HCI-13 PDXs were gifts kindly donated by Dr. Alana Welm (Huntsman Cancer Institute, Salt Lake City, Utah). HCI PDX tumor fragments (1 mm^3) were surgically implanted under the mammary fat pad in female NOD SCID Gamma (NSG) mice. Tumor volume was measured twice weekly for MCF-7 xenograft and once or twice weekly for HCI PDXs. At the end of the study, animals were sacrificed and tumors were excised, weighed, and stored for various analyses.
To determine if the same effect is observed in an AR-positive, but ER-negative breast cancer, HCI-9 tumor fragments were implanted under the mammary fat pad of NSG mice.

[4] = system: HCI-13 tumors; assay: Phospho-proteomics of HCI-13 PDX tumors; parameters: species or system mice; conditions: mouse, in vivo
Description: Whole tissue lysates were directly prepared from the tissue sections using a 1:1 mixture of T-PER (Tissue Protein Extraction Reagent; Pierce, Rockford, Ill.) and 2× Tris-Glycine SDS Sample Buffer (Invitrogen, Carlsbad, Calif.) supplemented with 5% 2-mercaptoethanol. Samples were boiled for 8 minutes and stored at −80° C. until arrayed.
Samples and standard curves for internal quality assurance were printed onto nitrocellulose-coated slides (Grace Bio-labs, Bend, Oreg.) using an Aushon 2470 arrayer (Aushon BioSystems, Billerica, Mass.). Selected arrays were used to estimate the amount of protein in each sample using a Sypro Ruby Protein Blot Stain (Molecular Probes, Eugene, Oreg.) protocol following manufacturer's instructions (Pin et al. (2014) Curr Protoc Prtein Sci 75, Unit 27 27). Remaining arrays were tested with a single primary antibody using an automated system (Dako Cytomation, Carpinteria, Calif.) as previously described (Baldelli et al. (2015) Oncotarget 6, 32368-32379). Arrays were first incubated with Reblot Antibody stripping solution (Chemicon, Temecula, Calif.), followed by two washes in PBS, and I-block solution (Tropix, Bedford, Mass.) for 4 hours. Arrays were probed with a total of 174 antibodies targeting a wide range of protein kinases and their activation via phosphorylation. Antibodies specificity was tested using standard immunoblotting on a panel of cell lysates. […]
The commercially available Signal Amplification System (CSA; Dako Cytomation) and a streptavidin-conjugated IRDye 680 secondary antibody (LI-COR Biosciences, Lincoln, Nebr.) were used as signal detection methods. Images were acquired on the laser-based PowerScanner (TECAN, Mönnedorf, Switzerland), and data were analyzed using the MicroVigene software Version 5.1 (Vigene Tech, Carlisle, Mass.) as previously described (Baldelli et al. (2015) Oncotarget 6, 32368-32379). […]

[5] = target: AR-LBD (Homo sapiens, UniProt P10275); assay: Competitive radioligand binding with [3H]MIB; conditions: DHT = 1.0
[6] = system: MCF-7-AR cells; assay: MCF-7-AR xenograft in ovariectomized, estradiol-supplemented mice; format: in vivo
Description: Once tumors reached 100-200 mm^3, the animals were randomized and treated with vehicle or 30 mg/kg per day of Formula VIII. Tumor volumes and body weights were measured thrice weekly. At the end of 5 weeks of treatment, the animals were sacrificed, tumors weighed and stored for RNA and protein isolation and histology. * significance at P<0.05.
as §1

Chain of AR-LBD (P10275 669-900 limits assumed): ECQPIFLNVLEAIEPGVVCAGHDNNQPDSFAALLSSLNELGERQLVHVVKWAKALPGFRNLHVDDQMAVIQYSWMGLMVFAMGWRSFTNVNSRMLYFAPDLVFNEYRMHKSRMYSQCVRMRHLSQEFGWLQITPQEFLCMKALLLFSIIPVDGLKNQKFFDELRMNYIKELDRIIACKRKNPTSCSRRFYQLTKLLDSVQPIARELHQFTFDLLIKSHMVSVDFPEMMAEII

C[C@](O)(COc1ccc(C#N)cc1)C(=O)Nc1ccc(C#N)c(C(F)(F)F)c1 [Formula IX, (S)—N-(4-Cyano-3-(trifluoromethyl)phenyl)-3-(4-cyanophenoxy)-2-hydroxy-2-methylpropanamide]
inhibition of ER-induced pS2 and PR gene expression ([1]; 10 nM DHT, 1 μM Formula IX, 100 nM fulvestrant): effective
AR-target gene FKBP5 expression [1]: induced
MKI67 expression [1]: inhibited
lean body mass [2]: increased
tumor growth trajectory [3]: Neither Formula IX nor enzalutamide altered the growth trajectory
expression of proliferation marker Ki67 [4]: inhibited the expression
phosphorylation of oncogenic proteins (pERK, PKC z, RSK3, Ezrin, BCL2, ELF4G, ER) [4]: inhibited the phosphorylation
phosphorylation of tumor suppressor proteins (p53, p27, ACC, AR) [4]: increased the phosphorylation

C[C@](O)(COc1ccc(C#N)cc1)C(=O)Nc1ccc(C#N)c(Cl)c1 [Formula VIII, (S)—N-(3-chloro-4-cyanophenyl)-3-(4-cyanophenoxy)-2-hydroxy-2-methylpropanamide]
relative binding affinities (RBAs) for AR [5]: 0.314
growth inhibition of xenografts ([6]; 30 mg/kg per day, 5 weeks): greater than 50%
uterus weight ([6]; estrogen supplemented animals): inhibited
